Like-named read-outs stand apart in the source and are kept apart here.
Legend:
[1] = target: T1, SF9 affinity purified rat farnesyl protein transferase (Rattus norvegicus, UniProt Q02293+Q04631); assay: PFT inhibitory activity (radiolabeled farnesyl pyrophosphate, streptavidin bead assay); type: biochemical
T1 construct: made in house; host or cells: Sf9 insect cells (baculovirus system inferred from b7)
Procedure: The protein:farnesyl transferase (PFT) or farnesyl protein transferase (FPT) inhibitory activity of compounds of the present invention were assayed in HEPES buffer (pH 7.4) containing 5 mM potassium phosphate and 20 μM ZnCl2. The solution also contained 5 mM DTT (dithiothreitol), 5 mM MgCl2, and 0.1% PEG 8000. Assays were performed in 96 well plates (Wallec) and employed solutions composed of varying concentrations of a compound of the present invention in 100% DMSO (dimethylsulfoxide). Upon addition of both substrates, radiolabeled farnesyl pyrophosphate ([1^3 H], specific activity 15-30 Ci/mmol, final concentration 134 nM) and (biotinyl)-Ahe-Thr-Lys-Cys-Val-Ile-Met ([3aS[3a alpha, 4 beta, 6a alpha]-hexahydro-2-oxo-1H-thieno[3,4-d]imidazole-5-pentanoic acid]-[7-aminoheptanoic acid]-Thr-Lys-Cys-Val-Ile-Met) (Ahe is 7-aminoheptanoic acid, Thr is threonine, Lys is lysine, Cys is cysteine, Val is valine, Ile is isoleucine and Met is methionine) (final concentration 0.2 μM), the enzyme reaction was started by addition of SF9 affinity purified rat farnesyl protein transferase. After incubation at 30° C. for 30 minutes, the reaction was terminated by diluting the reaction 2.5-fold with a stop buffer containing 1.5 M magnesium acetate, 0.2 M H3 PO4, 0.5% BSA (bovine serum albumin), and strepavidin beads (Amersham) at a concentration of 1.3 mg/mL. After allowing the plate to settle for 30 minutes at room temperature, radioactivity was quantitated on a microBeta counter (Model 1450, Wallec). The assay was also carried out without 5 mM potassium phosphate.

[2] = test system: ras farnesylation in ras-transformed cells; assay: Gel shift assay; type: cell-based; conditions: ras-transformed cells, 18-hour incubation; read-out: Gel Shift (μM) MED (minimal effective dose to observe inhibition of ras farnesylation)
Procedure: Twenty-four hours after planting 2×10^6 ras-transformed cells per treatment condition, the farnesylation inhibitor is added at varying concentrations. Following an 18-hour incubation period, cells are lysed in phosphate-buffered saline containing 1% Triton X-100, 0.5% sodium deoxycholate, and 0.1% SDS (sodium dodecyl sulfate), pH 7.4 in the presence of several protease inhibitors (PMSF (phenylmethylsulfonylfluoride), antipain, leupeptin, pepstatin A, and aprotinin all at 1 μg/mL). Ras protein is immunoprecipitated from the supernatants by the addition of 3 μg v-H-ras Ab-2 (Y13-259 antibody from Oncogene Science). After overnight immunoprecipitation, 30 μL of a 50% protein G-Sepharose slurry (Pharmacia) is added followed by 45-minute incubation. Pellets are resuspended in 2× tris-glycine loading buffer (Novex) containing 5% β-mercaptoethanol and then denatured by 5 minutes boiling prior to electrophoresis on 14% Tris-glycine SDS gels. Using Western transfer techniques, proteins are transferred to nitrocellulose membranes followed by blocking in blocking buffer. Upon overnight incubation with primary antibody (pan-ras Ab-2 from Oncogene Science), an antimouse HRP (horse radish peroxidase) conjugate secondary antibody (Amersham) is employed for detection of the ras protein. Blots are developed using ECL(enhanced chemiluminescence) techniques (Amersham).

[3] = test system: H61 cells: NIH transformed 3T3 H-ras cells; assay: Clonogenic assay (6 well plates, soft agar); type: cell-based
Procedure: Clonoaenic Assay (6 well lates)
Sometime previous to setting up an actual test:
1. Make up 1.5% Bacto Agar in Milli-Q water and autoclave.
2. Make up 500 mL 2× DMEM-HG without phenol red by combining the following:
1 bottle DMEM base powder (Sigma D-5030)
Adjust pH to 7.1 with HCL; filter sterilize.
1. Set up makeshift water bath (beaker of water with thermometer, on hot plate) in the hood. Keep water temperature between 37° C. to 43° C.
2. […] 1.5% Bacto Agar for approximately 2 minutes on high, or until completely melted. Then let it cool somewhat before using it. (You can keep it from resolidifying by setting the bottle on the hot plate.) […]
3. Bottom Layer (0.6% agar) Top Layer (0.3% agar)
20% calf serum 20% calf serum
40% Bacto Agar (1.5%) 20% Bacto Agar (1.5%)
Depending on the volume of each layer needed, use either 50 mL conical tubes or 200 mL turnip tubes which can be floated in the "water bath".
4. Add 1 mL of bottom layer agar/medium to each well: deliver 1 mL warm agar/medium to a well; then using the tip of the pipet, spread the agar/medium around to completely cover the bottom. Repeat with next well.
5. Allow the plates to set at room temperature for about 5 minutes until the bottom layer solidifies.
6. Label sterile Falcon 2054 (12×75 mm) tubes and add appropriate volume of drug solutions into them.
7. Aliquot 4 AL of DMSO or drug solution per 1 mL of agar/medium to appropriate tubes; then add the agar/medium/cells to each tube. Always add 1 mL more than will actually be needed. Mix up and down in the pipet (gently); then deliver 1 mL to the center of each well. The upper layer is less viscous, so it will generally spread out over the bottom layer unaided. If necessary, rotate the plane of the plate gently to spread the top layer evenly over the bottom layer.
8. Let plates set for 5 or 10 minutes at room temperature to solidify, then put into 5% CO2, 37° C. incubator.
9. On Day 13, add 0.5 mL of INT (tetrazolium 1 mg/mL in Milli-Q H2 O, filter sterilized) and return plates to incubator.

[4] = HEPES buffer pH 7.4, without 5 mM potassium phosphate, read-out: IC50 (μM) Hepes
[5] = HEPES buffer pH 7.4 containing 5 mM potassium phosphate, read-out: IC50 (μM) 5 mM K3 PO4 -2

T1 sequence (Q02293 whole entry, one chain of several): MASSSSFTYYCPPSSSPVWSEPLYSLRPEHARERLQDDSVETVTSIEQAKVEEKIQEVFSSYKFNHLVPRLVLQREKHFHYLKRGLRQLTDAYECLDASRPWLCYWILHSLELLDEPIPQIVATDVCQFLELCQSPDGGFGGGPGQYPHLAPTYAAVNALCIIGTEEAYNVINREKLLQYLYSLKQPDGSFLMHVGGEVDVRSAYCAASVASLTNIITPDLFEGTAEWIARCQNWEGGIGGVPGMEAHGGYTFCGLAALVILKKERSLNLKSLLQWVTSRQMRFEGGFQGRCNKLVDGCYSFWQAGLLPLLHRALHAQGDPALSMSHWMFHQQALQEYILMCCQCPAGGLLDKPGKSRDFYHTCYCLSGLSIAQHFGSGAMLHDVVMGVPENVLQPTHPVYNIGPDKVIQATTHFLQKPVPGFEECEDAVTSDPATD

IC50 [1, 4]	IC50 [1, 5]	Compound	minimal effective concentration [2]	IC50 ([3]; average obtained by additional tests, read-out: Clonogenic Assay IC50 (μM), number in parentheses)	IC50 ([3]; colonies counted after Day 13, read-out: Clonogenic Assay IC50)	IC50 ([3]; 312 h, colonies counted after Day 13, read-out: Clonogenic Assay IC50)
0.15 µM	0.009 µM	CC(CNC(=O)CN(Cc1ccc(OCc2ccccc2)cc1)C(=O)[C@H](Cc1c[nH]cn1)NC(=O)NCc1ccccc1)c1ccccc1 (stereo partly drawn) [Example 26, (S)-N-(4-Benzyloxy-benzyl)-2-(3-benzyl-ureido)-3-(1H-imidazole-4-yl)-N-[(2-phenyl-propylcarbamoyl)-methyl]-propionamide]	–	–	–	–
–	–	CC(CNC(=O)CN(Cc1ccc(Br)cc1)C(=O)[C@H](Cc1c[nH]cn1)NC(=O)OCc1ccccc1)c1ccccc1 (stereo partly drawn) [Example 29, (S)-[1-{(4-Bromo-benzyl)-[(2-phenyl-propylcarbamoyl)-methyl]-carbamoyl}-2-(1H-imidazole-4-yl)-ethyl]-carbamic Acid Benzyl Ester]	0.1 µM	–	–	> 1 µM
1.98 µM	0.034 µM	CC(C)(CNC(=O)CN(Cc1ccccn1)C(=O)[C@H](Cc1c[nH]cn1)NC(=O)OCc1ccccc1)c1ccccc1 [Example 46, (S)-(2-(1H-Imidazole-4-yl)-1-{[(2-methyl-2-phenyl-propylcarbamoyl)-methyl]-pyridin-2-ylmethyl-carbamoyl}-ethyl)-carbamic Acid Benzyl Ester]	1 µM	–	–	–
0.5 µM	0.0029 µM	CC(CNC(=O)CN(Cc1ccc(N(C)C)cc1)C(=O)[C@H](Cc1c[nH]cn1)NC(=O)OCc1ccccc1)c1ccccc1 (stereo partly drawn) [Example 48, (S)-[1-{(4-Dimethylamino-benzyl)-[(2-phenyl-propylcarbamoyl)-methyl]-carbamoyl}-2-(1H-imidazole-4-yl)-ethyl]-carbamic Acid Benzyl Ester]	0.05 µM	–	–	–
0.86 µM	0.014 µM	CC(C(=O)NCC(C)(C)c1ccccc1)N(Cc1ccc(Cl)cc1)C(=O)[C@H](Cc1cnc[nH]1)NC(=O)OCc1ccccc1 (stereo partly drawn) [Example 55, (S)-[1-{(4-Chloro-benzyl)-[1-(2-methyl-2-phenyl-propylcarbamoyl)-ethyl]-carbamoyl}-2-(3H-imidazole-4-yl)-ethyl]-carbamic Acid Benzyl Ester]	0.05 µM	–	–	–
0.32 µM	0.012 µM	Cc1ccc(CN(CC(=O)NCC(C)(C)c2ccccc2)C(=O)[C@H](Cc2c[nH]cn2)NC(=O)OCc2ccccc2)cc1 [Example 56, (S)-(2-(1H-Imidazole-4-yl)-1-{(4-methyl-benzyl)-[(2-methyl-2-phenyl-propylcarbamoyl)-methyl]-carbamoyl}-ethyl)-carbamic Acid Benzyl Ester]	0.05 µM	–	–	–
0.38 µM	0.0052 µM	COc1ccccc1CN(CC(=O)NCC(C)(C)c1ccccc1)C(=O)[C@H](Cc1c[nH]cn1)NC(=O)OCc1ccccc1 [Example 57, (S)-(2-(1H-Imidazole-4-yl)-1-{(2-methoxy-benzyl)-[(2-methyl-2-phenyl-propylcarbamoyl)-methyl]-carbamoyl}-ethyl)-carbamic Acid Benzyl Ester]	–	–	–	–
0.029 µM	0.005 µM	CN(Cc1ccccc1)C(=O)N[C@@H](Cc1c[nH]cn1)C(=O)N(CC(=O)NCC(C)(C)c1ccccc1)Cc1ccc(Cl)cc1 [Example 58, (S)-2-(3-Benzyl-3-methyl-ureido)-N-(4-chloro-benzyl)-3-(1H-imidazole-4-yl)-N-[(2-methyl-2-phenyl-propylcarbamoyl)-methyl]-propionamide]	0.05 µM	–	–	–
0.52 µM	0.004 µM	COc1cccc(CN(CC(=O)NCC(C)(C)c2ccccc2)C(=O)[C@H](Cc2c[nH]cn2)NC(=O)OCc2ccccc2)c1 [Example 59, (S)-(2-(1H-Imidazole-4-yl)-1-{(3-methoxy-benzyl)-[(2-methyl-2-phenyl-propylcarbamoyl)-methyl]-carbamoyl}-ethyl)-carbamic Acid Benzyl Ester]	0.05 µM	–	–	–
0.14 µM	0.016 µM	CC(C)(CNC(=O)CN(Cc1ccccc1OCc1ccncc1)C(=O)[C@H](Cc1c[nH]cn1)NC(=O)OCc1ccccc1)c1ccccc1 [Example 60, (S)-(2-(1H-Imidazole-4-yl)-1-{[(2-methyl-2-phenyl-propylcarbamoyl)-methyl]-[2-(pyridin-4-ylmethoxy)-benzyl]-carbamoyl}-ethyl)-carbamic Acid Benzyl Ester]	0.05 µM	–	–	–
2.6 µM	0.029 µM	CC(C)CN(CC(=O)NCC(C)c1ccccc1)C(=O)[C@H](Cc1c[nH]cn1)NC(=O)OCc1ccccc1 (stereo partly drawn) [Example 62, (S)-(2-(1H-Imidazol-4-yl)-1-{isobutyl-[(2-phenyl-propylcarbamoyl)-methyl]-carbamoyl}-ethyl)-carbamic Acid Benzyl Ester]	–	–	–	–

Compound	IC50 [1, 4]	IC50 [1, 5]	minimal effective concentration [2]	IC50 ([3]; average obtained by additional tests, read-out: Clonogenic Assay IC50 (μM), number in parentheses)	IC50 ([3]; colonies counted after Day 13, read-out: Clonogenic Assay IC50)	IC50 ([3]; 312 h, colonies counted after Day 13, read-out: Clonogenic Assay IC50)
O=C(CN(Cc1ccc(OCc2ccccc2)cc1)C(=O)[C@H](Cc1c[nH]cn1)NC(=O)OCc1ccccc1)NCCOCc1ccccc1 [Example 1, (S)-N-[(Phenylmethoxy)carbonyl]-L-histidyl-N-[2-(phenylmethoxy)ethyl]-N. sup.2-[[4-(phenylmethoxy)phenyl]-methyl]alycinamide]	7.7 µM	0.26 µM	1 µM	14.3 µM	2.7 µM	–
CC(CNC(=O)CN(Cc1cccc2ccccc12)C(=O)[C@H](Cc1c[nH]cn1)NC(=O)OCc1ccccc1)c1ccccc1 (stereo partly drawn) [Example 37, (S)-(2-(1H-Imidazole-4-yl)-1-{naththalen-1-ylmethyl-[(2-phenyl-propylcarbamoyl)-methyl]-carbamoyl}-ethyl)-carbamic Acid Benzyl Ester]	0.92 µM	0.026 µM	≥ 0.2 µM	–	–	–
CC(C)(CNC(=O)CN(Cc1ccc(OCc2ccccc2)cc1)C(=O)[C@H](Cc1c[nH]cn1)NC(=O)OCc1ccsc1)c1ccccc1 [Example 54, (S)-[1-{(4-Benzyloxy-benzyl)-[(2-methyl-2-henyl-propylcarbamoyl)-methyl]-carbamoyl}-2-(1H-imidazole-4-yl)-ethyl]-carbamic acid thiophen-3-ylmethyl Ester]	0.2 µM	0.0012 µM	0.2 µM	–	–	–
[1-{Cyclohexylmethyl-[(2-phenyl-propylcarbamoyl)-methyl]-carbamoyl}-2-(3H-imidazole-4-yl)-ethyl]-carbamic Acid Benzyl Ester [Example 61]	0.66 µM	0.018 µM	0.01 µM	–	–	–

Source: patent US6300501A, “Histidine-(N-benzyl glycinamide) inhibitors of protein farnesyl transferase” (Warner-Lambert Company, priority 1998, dated 2001)
